Among the data in BindingDB's records for doi:10.1016/s0022-2836(03)00862-3 (Morphochem, 2003) are IC50 values, retold here.

The structures appear in SMILES notation.

What is called IC50 is the concentration that gives 50% inhibition. High values mean a need for much substance, low ones inhibition by little substance.

Chain of Methionine aminopeptidase (P0A079 whole entry): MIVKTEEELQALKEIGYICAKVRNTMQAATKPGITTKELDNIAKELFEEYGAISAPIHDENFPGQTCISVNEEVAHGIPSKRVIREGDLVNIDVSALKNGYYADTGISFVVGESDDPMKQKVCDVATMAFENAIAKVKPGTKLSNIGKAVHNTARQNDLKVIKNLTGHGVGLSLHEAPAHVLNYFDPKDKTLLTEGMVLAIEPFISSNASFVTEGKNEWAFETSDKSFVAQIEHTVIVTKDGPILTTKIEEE

In the test the target is Methionine aminopeptidase (Staphylococcus aureus (strain MW2), UniProt P0A079). Nature of the test: MetAP Inhibition Assay. The following applies: pH 7.5; 22 °C. The procedure:
The MetAP reaction with Co2+ as a cofactor is coupled to a prolyl aminopeptidase (ProAP) using Met-Pro-p-nitroanilide as substrate. MetAP-catalyzed cleavage of the N-terminal methionine produces prolyl-p-nitroanilide, which is rapidly hydrolyzed by ProAP to release a chromogenic product. This allows the MetAP reaction to be continuously monitored at 405 nm on a UVVIS spectrophotometer. The initial rate was calculated from the early part of the reaction progress curve (<5 min). Activity assays were performed in triplicate using eight to 16 concentrations of substrate or inhibitor.
`CSCC[C@H](N)c1nnc(SCc2ccccc2)[nH]1` [1,2,4-triazole derivative.] showed a half-maximal inhibitory concentration (IC50) of 43.7 nM.

On to `Cn1cnnc1SCc1ccccc1` [1,2,4-triazole derivative.], for which the IC50 is over 100000 nM.

Regarding `Nc1n[nH]c(SCc2ccccc2)n1` [1,2,4-triazole derivative.], it took 599 nM to reach half-maximal inhibition (IC50).
